Test results as given in patent US20160256481A1, “USE OF WATER SOLUBLE PLATINUM COMPLEX IN PREPARING DRUGS FOR PREVENTION AND TREATMENT OF CANCERS” (GUDUI BIOPHARMA TECHNOLOGY INC., priority 2011, published 2016).

Assays:
L1210 tumor cells = assay: Antitumor efficacy in L1210 tumor-bearing CDF1 mice (increase in life span); format: in vivo; settings: for Survived Animals on Day 42: 6 per group; for Weight Changes: from the first day to the seventh day
Method: In the following test, antitumor efficacy studies were performed using 8-9 weeks old female CDF1 mice, the average weight of the animal is 20-25 grams. L1210 tumor cells (about 10^5 cells per mouse) were inoculated intraperitoneally. The water-soluble platinum complexes were used to treat the tumor-bearing animals and the efficacy was compared compared with the clinical platinum antitumor drugs. […] Drugs were administered intraperitoneally on day 1 and day 4 after tumor cell transplantation. The number of experimental animals in each group was 6.
The experimental animals were purchased from Vital River Laboratory Animal Technology Co. Ltd., Tumor cells L1210-leukemia cells were purchased from Shanghai An Yan Commercial Trade Co. Ltd.
The increase in life span (ILS) is calculated as follows:
Wherein, St=the weighted median survival time of treated animals; Su=the weighted median survival time of untreated animals

[1] = cited from earlier work
[2] = tested on: A549-human non-small cell lung cancer (adenocarcinoma); assay: MTS cytotoxicity assay (IC50); format: cell-based; settings: A549, 96 h, read-out: IC50 value in human tumor cells A549
Method: (§1) Containing 10% bovine fetal serum, 1 mM of sodium pyruvate, 2 mM of L-glutamine, 50 U/mL of penicillin, 50 μg/mL of streptomycin
(§2) Human tumor cells: du145-human prostate cancer; MCF-7-human breast cancer; SK0V3-human ovarian carcinoma, HT-29-human colon cancer; A549-human non-small cell lung cancer (adenocarcinoma), H460-human non-small cell lung cancer (large cell carcinoma), and animal tumor cells: L 1210-mice leukemia cells used in the following activity test experiments were all purchased from Shanghai An Yan Commercial Trade Co., Ltd.
(§3) MTS test method was used in cytotoxicity assay. The tumor cells of logarithmic phase were collected, and then the concentration of cell suspension was adjusted, 100 μL of the cell suspension was added to each well, the cells were placed at 1000-10000 cells/well (edge well filled with sterile PBS). Cells were incubated at 37° C. with 5% CO2 to make cell monolayer overspread the bottom of each well (96-well flat-bottomed microplate). 100 μL of different concentrations of the test compounds was added to each well. Each condition was measured in five replicates. The microplate was incubated at 37° C. with 5% CO2 for 96 h and checked with inverted microscope. MTS working reagent: To 2 mL of MTS (2 mg/mL, prepared by DPBS) was added 100 μL of PMS (1 mg/mL, prepared by DPBS). The cell culture medium was discarded after centrifugation, the cell culture plate was carefully washed 2-3 times with PBS. Before detecting the absorbance value (OD), to each sample containing well was added 100 μL of cell culture medium, then 20 μL of MTS working reagent was added. After incubation at 37° C. with 5% CO2 for 2 h, the OD (optical density) value was detected at 490 nm.
(§4) Control group: the conditions are the same as the above without adding the active ingredient of antitumor agents, and the OD value was detected at 490 nm on the end of the experiment.
(§5) The cell inhibiting rate of the drugs to tumor cell growth was calculated according to the following formula:
(§6) 1) Cell viability (%)=OD of treated group/OD of control group×100%
(§7) 2) The cell viabilities under the different drug concentrations were determined, and then plotted against drug concentration. The IC50 value is the corresponding concentration in the obtained curve when the cell viability was 50%.

[3] = tested on: H460-human non-small cell lung cancer (large cell carcinoma); assay: MTS cytotoxicity assay (IC50); format: cell-based; settings: H460, 96 h, read-out: IC50 value in human tumor cells H460
Method: as §1, §2, §3, §4, §5, §6, §7

HT-29-human colon cancer = assay: MTS cytotoxicity assay (IC50); format: cell-based; settings: HT29, 96 h, read-out: IC50 value in human tumor cells HT29
Method: as §1, §2, §3, §4, §5, §6, §7

[4] = tested on: MCF-7-human breast cancer; assay: MTS cytotoxicity assay (IC50); format: cell-based; settings: MCF7, 96 h, read-out: IC50 value in human tumor cells MCF7
Method: as §1, §2, §3, §4, §5, §6, §7

[5] = tested on: SKOV3-human ovarian carcinoma; assay: MTS cytotoxicity assay (IC50); format: cell-based; settings: SKOV3, 96 h, read-out: IC50 value in human tumor cells SKOV3
Method: as §1, §2, §3, §4, §5, §6, §7

[6] = tested on: du145-human prostate cancer; assay: MTS cytotoxicity assay (IC50); format: cell-based; settings: DU145, 96 h, read-out: IC50 value in human tumor cells DU145
Method: as §1, §2, §3, §4, §5, §6, §7

[7] = 1.25 mg/Kg i.p. day 1 and day 4

## N.N.O=C([O-])C1(C(=O)[O-])CCC1.[Pt+2] [Carboplatin]
L1210 tumor cells; 24 mg/Kg i.p. day 1 and day 4
  ILS: 8%
  Survived Animals on Day 42: 0/6
  Weight Changes: +0.6 g
L1210 tumor cells; 40 mg/Kg i.p. day 1 and day 4
  ILS: 22%
  Survived Animals on Day 42: 0/6
  Weight Changes: -0.4 g
L1210 tumor cells; 80 mg/Kg i.p. day 1 and day 4
  ILS: 50%
  Survived Animals on Day 42: 1/6
  Weight Changes: -1.2 g
[1]
  water solubility: 17 mg/mL

## cis-[trans-(1R, 2R)-diaminocyclohexane] Pt (II) (1-O-D-glucoside-propane-3-chloro-3,3-dicarboxylate) [Complex 2]
[2]
  IC50: 0.821 µM
[3]
  IC50: 22 µM
HT-29-human colon cancer
  IC50: 1.88 µM
[4]
  IC50: 2 µM
[5]
  IC50: 10 µM
[6]
  IC50: 5.19 µM
L1210 tumor cells; 50 mg/Kg i.p. day 1 and day 4
  ILS: >425%
  Survived Animals on Day 42: 6/6
  Weight Changes: +1.1 g
L1210 tumor cells; 100 mg/Kg i.p. day 1 and day 4
  ILS: >425%
  Survived Animals on Day 42: 6/6
  Weight Changes: +0 g
L1210 tumor cells; 200 mg/Kg i.p. day 1 and day 4
  ILS: >425%
  Survived Animals on Day 42: 6/6
  Weight Changes: -0.4 g

## N.N.[Cl][Pt][Cl] [Cisplatin]
L1210 tumor cells; [7]
  ILS: 20%
  Survived Animals on Day 42: 0/6
L1210 tumor cells; 2.5 mg/Kg i.p. day 1 and day 4
  ILS: 125%
  Survived Animals on Day 42: 1/6
L1210 tumor cells; 5.0 mg/Kg i.p. day 1 and day 4
  ILS: 265%
  Survived Animals on Day 42: 3/6
